Laboratory results published in ChEMBL document CHEMBL1132977 (J Med Chem, 2000).

These compounds were tested against Peptidyl-prolyl cis-trans isomerase FKBP1A (Homo sapiens, UniProt P62942, F36V) (assay: Binding affinity for Mutant F36V-FK506 binding protein by competitive assay based on fluorescence polarization.).
Peptidyl-prolyl cis-trans isomerase FKBP1A, sequence (P62942 2-108 F37V limits assumed): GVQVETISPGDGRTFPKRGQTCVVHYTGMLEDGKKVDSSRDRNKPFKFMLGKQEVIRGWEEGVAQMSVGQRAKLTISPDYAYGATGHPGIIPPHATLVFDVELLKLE

IC50 [nM] | SMILES
40 | CC[C@H](C(=O)N1CCCC[C@H]1C(=O)O[C@H](CCc1ccc(OC)c(OC)c1)c1cccc(OCC(=O)O)c1)c1ccccc1
1.8 | CC[C@H](C(=O)N1CCCC[C@H]1C(=O)O[C@H](CCc1ccc(OC)c(OC)c1)c1cccc(OCC(=O)O)c1)c1cc(OC)c(OC)c(OC)c1
19 | C=CC[C@@H](C(=O)N1CCCC[C@H]1C(=O)OC(CCc1ccc(OC)c(OC)c1)c1cccc(OCC(=O)O)c1)c1cc(OC)c(OC)c(OC)c1 (stereo partly drawn)
94 | COc1ccc(CCC(OC(=O)[C@@H]2CCCCN2C(=O)[C@@H](C)c2ccccc2)c2cccc(OCC(=O)O)c2)cc1OC (stereo partly drawn)
3.8 | CCC[C@H](C(=O)N1CCCC[C@H]1C(=O)OC(CCc1ccc(OC)c(OC)c1)c1cccc(OCC(=O)O)c1)c1cc(OC)c(OC)c(OC)c1 (stereo partly drawn)
126 | COc1ccc(CCC(OC(=O)[C@@H]2CCCCN2C(=O)[C@H](CC2CC2)c2cc(OC)c(OC)c(OC)c2)c2cccc(OCC(=O)O)c2)cc1OC (stereo partly drawn)
150 | COc1ccc(CCC(OC(=O)[C@@H]2CCCCN2C(=O)[C@H](c2ccccc2)C(C)C)c2cccc(OCC(=O)O)c2)cc1OC (stereo partly drawn)
133 | CC[C@@H](C(=O)N1CCCC[C@H]1C(=O)OC(CCc1ccc(OC)c(OC)c1)c1cccc(OCC(=O)O)c1)c1ccccc1 (stereo partly drawn)
65 | COc1ccc(CCC(OC(=O)[C@@H]2CCCCN2C(=O)[C@@H](c2cc(OC)c(OC)c(OC)c2)C(C)C)c2cccc(OCC(=O)O)c2)cc1OC (stereo partly drawn)
4.4 | COc1ccc(CCC(OC(=O)[C@@H]2CCCCN2C(=O)[C@@H](CC2CC2)c2cc(OC)c(OC)c(OC)c2)c2cccc(OCC(=O)O)c2)cc1OC (stereo partly drawn)
43 | CCC[C@@H](C(=O)N1CCCC[C@H]1C(=O)OC(CCc1ccc(OC)c(OC)c1)c1cccc(OCC(=O)O)c1)c1cc(OC)c(OC)c(OC)c1 (stereo partly drawn)
5.8 | COc1ccc(CCC(OC(=O)[C@@H]2CCCCN2C(=O)[C@H](c2cc(OC)c(OC)c(OC)c2)C(C)C)c2cccc(OCC(=O)O)c2)cc1OC (stereo partly drawn)
19 | COc1ccc(CCC(OC(=O)[C@@H]2CCCCN2C(=O)[C@@H](c2ccccc2)C(C)C)c2cccc(OCC(=O)O)c2)cc1OC (stereo partly drawn)
1.5 | C=CC[C@H](C(=O)N1CCCC[C@H]1C(=O)OC(CCc1ccc(OC)c(OC)c1)c1cccc(OCC(=O)O)c1)c1cc(OC)c(OC)c(OC)c1 (stereo partly drawn)
1530 | COc1ccc(CC[C@@H](OC(=O)[C@@H]2CCCCN2C(=O)Cc2ccccc2)c2cccc(OCC(=O)O)c2)cc1OC
590 | COc1ccc(CCC(OC(=O)[C@@H]2CCCCN2C(=O)[C@H](C)c2ccccc2)c2cccc(OCC(=O)O)c2)cc1OC (stereo partly drawn)
187 | CC[C@@H](C(=O)N1CCCC[C@H]1C(=O)OC(CCc1ccc(OC)c(OC)c1)c1cccc(OCC(=O)O)c1)c1cc(OC)c(OC)c(OC)c1 (stereo partly drawn)
273 | COc1ccc(CCC(OC(=O)[C@@H]2CCCCN2C(=O)C(c2ccccc2)c2ccccc2)c2cccc(OCC(=O)O)c2)cc1OC (stereo partly drawn)
